Results as given in ChEMBL document CHEMBL4765476, “MCC950, a NLRP3 inhibitor, ameliorates lipopolysaccharide-induced lung inflammation in mice” (Bioorg Med Chem, 2021).
Active and inactive are the calls of the source. No cut-off for these calls is given here.

What was measured:
Mus musculus [1] = assay: Antiinflammatory activity in ICR mouse assessed as reduction in LPS-induced lymphocyte level in BALF at 50 mg/kg, INH administered 18 hrs before LPS-stimulation and measured after 24 hrs by FACS analysis relative to control; assay type: functional; conditions: time 42 hrs
Mus musculus [2] = species on record: Mus musculus; conditions: ICR, dose 10-50 mg/kg, time 42.0 hrs
Mus musculus [3] = species on record: Mus musculus; conditions: ICR, dose 10-50 mg/kg, time 42.0 hrs; remark: listed apart in the source
Mus musculus [4] = assay: Antiinflammatory activity in ICR mouse assessed as reduction in LPS-induced neutrophil infiltration in lungs at 50 mg/kg, ip administered 18 hrs before LPS-stimulation and measured after 24 hrs by H and E staining based imaging analysis relative to control; assay type: functional; conditions: time 42 hrs
Mus musculus [5] = assay: Antiinflammatory activity in ICR mouse assessed as reduction in LPS-induced lymphocyte level in BALF at 50 mg/kg, ip administered 18 hrs before LPS-stimulation and measured after 24 hrs by FACS analysis relative to control; assay type: functional; conditions: time 42 hrs
Mus musculus [6] = assay: Antiinflammatory activity in ICR mouse assessed as reduction in LPS-induced neutrophil infiltration in lungs at 10 mg/kg, ip administered 18 hrs before LPS-stimulation and measured after 24 hrs by H and E staining based imaging analysis relative to control; assay type: functional; conditions: time 42 hrs
Mus musculus [7] = assay: Antiinflammatory activity in ICR mouse assessed as reduction in LPS-induced neutrophils in BALF at 10 mg/kg, INH administered 18 hrs before LPS-stimulation and measured after 24 hrs by FACS analysis relative to control; assay type: functional; conditions: time 42 hrs
Mus musculus [8] = species on record: Mus musculus; conditions: ICR, dose 10-50 mg/kg, time 42.0 hrs; remark: listed apart in the source
Mus musculus [9] = species on record: Mus musculus; conditions: ICR, dose 10-50 mg/kg, time 42.0 hrs; remark: listed apart in the source
Mus musculus [10] = assay: Antiinflammatory activity in ICR mouse assessed as reduction in LPS-induced neutrophil infiltration in lungs at 50 mg/kg, INH administered 18 hrs before LPS-stimulation and measured after 24 hrs by H and E staining based imaging analysis relative to control; assay type: functional; conditions: time 42 hrs
Mus musculus [11] = assay: Antiinflammatory activity in ICR mouse assessed as reduction in LPS-induced neutrophils in BALF at 10 mg/kg, ip administered 18 hrs before LPS-stimulation and measured after 24 hrs by FACS analysis relative to control; assay type: functional; conditions: time 42 hrs
Mus musculus [12] = species on record: Mus musculus; conditions: ICR, dose 10-50 mg/kg, time 42.0 hrs; remark: listed apart in the source
Mus musculus [13] = species on record: Mus musculus; conditions: ICR, dose 10-50 mg/kg, time 42.0 hrs; remark: listed apart in the source
Mus musculus [14] = species on record: Mus musculus; conditions: ICR, dose 10.0 mg/kg, time 42.0 hrs
Mus musculus [15] = assay: Antiinflammatory activity in ICR mouse assessed as reduction in LPS-induced macrophage level in BALF at 10 mg/kg, ip administered 18 hrs before LPS-stimulation and measured after 24 hrs by FACS analysis relative to control; assay type: functional; conditions: time 42 hrs
Mus musculus [16] = species on record: Mus musculus; conditions: ICR, dose 10-50 mg/kg, time 42.0 hrs; remark: listed apart in the source
Mus musculus [17] = assay: Antiinflammatory activity in ICR mouse assessed as reduction in LPS-induced lymphocyte level in BALF at 10 mg/kg, ip administered 18 hrs before LPS-stimulation and measured after 24 hrs by FACS analysis relative to control; assay type: functional; conditions: time 42 hrs
Mus musculus [18] = species on record: Mus musculus; conditions: ICR, dose 10-50 mg/kg, time 42.0 hrs; remark: listed apart in the source
Mus musculus [19] = species on record: Mus musculus; conditions: ICR, dose 10-50 mg/kg, time 42.0 hrs; remark: listed apart in the source
Mus musculus [20] = assay: Antiinflammatory activity in ICR mouse assessed as reduction in LPS-induced macrophages level in BALF at 50 mg/kg, INH administered 18 hrs before LPS-stimulation and measured after 24 hrs by FACS analysis relative to control; assay type: functional; conditions: time 42 hrs
Mus musculus [21] = species on record: Mus musculus; conditions: ICR, dose 10-50 mg/kg, time 42.0 hrs; remark: listed apart in the source
Mus musculus [22] = species on record: Mus musculus; conditions: ICR, dose 10-50 mg/kg, time 42.0 hrs; remark: listed apart in the source
Mus musculus [23] = assay: Antiinflammatory activity in ICR mouse assessed as reduction in LPS-induced neutrophils in BALF at 50 mg/kg, INH administered 18 hrs before LPS-stimulation and measured after 24 hrs by FACS analysis relative to control; assay type: functional; conditions: time 42 hrs
Mus musculus [24] = species on record: Mus musculus; conditions: ICR, dose 10-50 mg/kg, time 42.0 hrs; remark: listed apart in the source
Mus musculus [25] = assay: Antiinflammatory activity in ICR mouse assessed as reduction in LPS-induced lymphocyte level in BALF at 10 mg/kg, INH administered 18 hrs before LPS-stimulation and measured after 24 hrs by FACS analysis relative to control; assay type: functional; conditions: time 42 hrs
Mus musculus [26] = species on record: Mus musculus; conditions: ICR, dose 10-50 mg/kg, time 42.0 hrs; remark: listed apart in the source
Mus musculus [27] = assay: Antiinflammatory activity in ICR mouse assessed as reduction in LPS-induced macrophages level in BALF at 10 mg/kg, INH administered 18 hrs before LPS-stimulation and measured after 24 hrs by FACS analysis relative to control; assay type: functional; conditions: time 42 hrs
Mus musculus [28] = assay: Antiinflammatory activity in ICR mouse assessed as reduction in LPS-induced neutrophil infiltration in lungs at 10 mg/kg, INH administered 18 hrs before LPS-stimulation and measured after 24 hrs by H and E staining based imaging analysis relative to control; assay type: functional; conditions: time 42 hrs
Mus musculus [29] = assay: Antiinflammatory activity in ICR mouse assessed as reduction in LPS-induced macrophage level in BALF at 50 mg/kg, ip administered 18 hrs before LPS-stimulation and measured after 24 hrs by FACS analysis relative to control; assay type: functional; conditions: time 42 hrs
Mus musculus [30] = species on record: Mus musculus; conditions: ICR, dose 10-50 mg/kg, time 42.0 hrs; remark: listed apart in the source
Mus musculus [31] = species on record: Mus musculus; conditions: ICR, dose 10-50 mg/kg, time 42.0 hrs; remark: listed apart in the source
Mus musculus [32] = assay: Antiinflammatory activity in ICR mouse assessed as reduction in LPS-induced neutrophils in BALF at 50 mg/kg, ip administered 18 hrs before LPS-stimulation and measured after 24 hrs by FACS analysis relative to control; assay type: functional; conditions: time 42 hrs
Mus musculus [33] = species on record: Mus musculus; conditions: ICR, dose 50.0 mg/kg, time 42.0 hrs

CC(C)(O)c1coc(S(=O)(=O)NC(=O)Nc2c3c(cc4c2CCC4)CCC3)c1
inhibition in vivo at 50 mg/kg (Mus musculus [1]): 34.9% | inhibition (Mus musculus [2]): Active | inhibition (Mus musculus [3]): Active | inhibition in vivo at 50 mg/kg (Mus musculus [4]): 51.4% | inhibition in vivo at 50 mg/kg (Mus musculus [5]): 49.8% | inhibition in vivo at 10 mg/kg (Mus musculus [6]): 37.1% | inhibition in vivo at 10 mg/kg (Mus musculus [7]): 46.5% | inhibition (Mus musculus [8]): Active | inhibition (Mus musculus [9]): Active | inhibition in vivo at 50 mg/kg (Mus musculus [10]): 52.9% | inhibition in vivo at 10 mg/kg (Mus musculus [11]): 44.2% | inhibition (Mus musculus [12]): Active | inhibition (Mus musculus [13]): Active | inhibition (Mus musculus [14]): inactive | inhibition in vivo at 10 mg/kg (Mus musculus [15]): 53.2% | inhibition (Mus musculus [16]): Active | inhibition in vivo at 10 mg/kg (Mus musculus [17]): 40.3% | inhibition (Mus musculus [18]): Active | inhibition (Mus musculus [19]): Active | inhibition in vivo at 50 mg/kg (Mus musculus [20]): 43.8% | inhibition (Mus musculus [21]): Active | inhibition (Mus musculus [22]): Active | inhibition in vivo at 50 mg/kg (Mus musculus [23]): 71.7% | inhibition (Mus musculus [24]): Active | inhibition in vivo at 10 mg/kg (Mus musculus [25]): 28.3% | inhibition (Mus musculus [26]): Active | inhibition in vivo at 10 mg/kg (Mus musculus [27]): 36.6% | inhibition in vivo at 10 mg/kg (Mus musculus [28]): 35.3% | inhibition in vivo at 50 mg/kg (Mus musculus [29]): 76.7% | inhibition (Mus musculus [30]): Active | inhibition (Mus musculus [31]): Active | inhibition in vivo at 50 mg/kg (Mus musculus [32]): 67.8% | inhibition (Mus musculus [33]): Active
